The test system of this series is Human ciliated epithelium cells.

Protocol: Human ciliated epithelium cells were analyzed by an in vitro method which allows for determining ciliary activity or ciliary vibration. The corresponding cells were exposed and incubated with 100 µl test substance at a temperature of 37°C. After an incubation period of 5 min ciliary vibration was measured.
By using this in vitro method, a nutrient solution (Dulbeco) as a standard, a 0.2% chlorohexidine solution (a common antiseptic agent), conventional polyvidone iodine solutions (Betaisodona) of different concentrations (5.0%, 2.5%, and 1.25% PVP-iodine), and a liposomal solution containing 4.5% PVP-iodine were tested.

For `[H]/N=C(\N/C(=N/[H])NCCCCCCNC(=N)NC(=N)Nc1ccc(Cl)cc1)Nc1ccc(Cl)cc1` [chlorohexidine], the ciliary vibration entry is recorded as “decrease of the measured ciliary vibration”.

These data come from patent publication EP2226073A1, “Topical pharmaceutical composition comprising an antiseptic and arginine for wound healing” (EURO-CELTIQUE S.A., priority 2009, dated 2010).
